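These data come from cells grown in 96-well plates and exposed to compound for 48 hours at five concentrations. TGI: total growth inhibition.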
Columns and labels:
Assay in all cases: NCI anticancer screen, dose series, 48 h
IGROV1 ovarian = tested on: IGROV1 ovarian
TK-10 renal = tested on: TK-10 renal
HOP-62 NSCLC = tested on: HOP-62 NSCLC
HCT-116 colon = tested on: HCT-116 colon
EKVX NSCLC = tested on: EKVX NSCLC
ACHN renal = tested on: ACHN renal
HOP-92 NSCLC = tested on: HOP-92 NSCLC
SK-MEL-5 melanoma = tested on: SK-MEL-5 melanoma
RXF 393 renal = tested on: RXF 393 renal
DMS 273 small cell lung = tested on: DMS 273 small cell lung
SF-268 CNS = tested on: SF-268 CNS
SK-MEL-28 melanoma = tested on: SK-MEL-28 melanoma
HCT-15 colon = tested on: HCT-15 colon
OVCAR-5 ovarian = tested on: OVCAR-5 ovarian
LXFL 529 NSCLC = tested on: LXFL 529 NSCLC
OVCAR-4 ovarian = tested on: OVCAR-4 ovarian
A549 NSCLC = tested on: A549 NSCLC
NCI-H226 lung = tested on: NCI-H226 lung
SF-539 CNS = tested on: SF-539 CNS
CCRF-CEM leukemia = tested on: CCRF-CEM leukemia
RPMI-8226 leukemia = tested on: RPMI-8226 leukemia
MOLT-4 leukemia = tested on: MOLT-4 leukemia
HL-60(TB) leukemia = tested on: HL-60(TB) leukemia
SN12C renal = tested on: SN12C renal
SNB-75 CNS = tested on: SNB-75 CNS
OVCAR-8 ovarian = tested on: OVCAR-8 ovarian
U251 CNS = tested on: U251 CNS
M14 melanoma = tested on: M14 melanoma
HCC-2998 colon = tested on: HCC-2998 colon
COLO 205 colon = tested on: COLO 205 colon
HOP-18 NSCLC = tested on: HOP-18 NSCLC
K-562 leukemia = tested on: K-562 leukemia
NCI-H460 lung = tested on: NCI-H460 lung
UO-31 renal = tested on: UO-31 renal
DLD-1 colon = tested on: DLD-1 colon
SNB-19 CNS = tested on: SNB-19 CNS
SK-MEL-2 melanoma = tested on: SK-MEL-2 melanoma
SNB-78 CNS = tested on: SNB-78 CNS
UACC-62 melanoma = tested on: UACC-62 melanoma
LOX IMVI melanoma = tested on: LOX IMVI melanoma
UACC-257 melanoma = tested on: UACC-257 melanoma
HT29 colon = tested on: HT29 colon
NCI-H522 lung = tested on: NCI-H522 lung
KM12 colon = tested on: KM12 colon
DMS 114 small cell lung = tested on: DMS 114 small cell lung
A498 renal = tested on: A498 renal
KM20L2 colon = tested on: KM20L2 colon
OVCAR-3 ovarian = tested on: OVCAR-3 ovarian
SW-620 colon = tested on: SW-620 colon
786-0 renal = tested on: 786-0 renal
SF-295 CNS = tested on: SF-295 CNS
MALME-3M melanoma = tested on: MALME-3M melanoma
CAKI-1 renal = tested on: CAKI-1 renal
M19-MEL melanoma = tested on: M19-MEL melanoma
NCI-H23 lung = tested on: NCI-H23 lung
SK-OV-3 ovarian = tested on: SK-OV-3 ovarian

For COc1cc([C@@H]2c3cc4c(cc3[C@@H](NC(=O)c3cccc(F)c3)C3COC(=O)[C@@H]32)OCO4)cc(OC)c1O (stereo not given in full), the TGI (IGROV1 ovarian) was 10.6 µM, the TGI (TK-10 renal) was 17.1 µM and the TGI (HOP-62 NSCLC) was 1940 nM. The TGI (HCT-116 colon) was 13.8 µM, the TGI (EKVX NSCLC) was 7.49 µM and the TGI (ACHN renal) was 1850 nM. It also gave a TGI (HOP-92 NSCLC) of 89.6 µM, a TGI (SK-MEL-5 melanoma) of 12.7 µM and a TGI (RXF 393 renal) of 37.5 µM. For the same molecule, the TGI (DMS 273 small cell lung) was 11.3 µM, the TGI (SF-268 CNS) was > 100 µM and the TGI (SK-MEL-28 melanoma) was 56.5 µM. For the same molecule, the TGI (HCT-15 colon) was 7.09 µM, the TGI (OVCAR-5 ovarian) was 33 µM and the TGI (LXFL 529 NSCLC) was > 100 µM. For the same molecule, the TGI (OVCAR-4 ovarian) was > 100 µM, the TGI (A549 NSCLC) was 2620 nM and the TGI (NCI-H226 lung) was 2200 nM. The TGI (SF-539 CNS) was 1700 nM, the TGI (CCRF-CEM leukemia) was > 100 µM and the TGI (RPMI-8226 leukemia) was 5.85 µM. The TGI (MOLT-4 leukemia) was 1060 nM, the TGI (HL-60(TB) leukemia) was 2300 nM and the TGI (SN12C renal) was 2730 nM. It also gave a TGI (SNB-75 CNS) of 5.24 µM, a TGI (OVCAR-8 ovarian) of 16.1 µM and a TGI (U251 CNS) of 1940 nM. The TGI (M14 melanoma) was 6.72 µM, the TGI (HCC-2998 colon) was 11.3 µM and the TGI (COLO 205 colon) was 22.1 µM. For the same molecule, the TGI (HOP-18 NSCLC) was > 100 µM, the TGI (K-562 leukemia) was > 100 µM and the TGI (NCI-H460 lung) was 7.52 µM. It also gave a TGI (UO-31 renal) of 11.2 µM, a TGI (DLD-1 colon) of 25.4 µM and a TGI (SNB-19 CNS) of 14.2 µM. For the same molecule, the TGI (SK-MEL-2 melanoma) was 18 µM, the TGI (SNB-78 CNS) was > 100 µM and the TGI (UACC-62 melanoma) was 3.7 µM. It also gave a TGI (LOX IMVI melanoma) of 15.1 µM, a TGI (UACC-257 melanoma) of 58.1 µM and a TGI (HT29 colon) of 15.4 µM. The TGI (NCI-H522 lung) was 3.97 µM, the TGI (KM12 colon) was 7.2 µM and the TGI (DMS 114 small cell lung) was 5.2 µM. For the same molecule, the TGI (A498 renal) was 4.91 µM, the TGI (KM20L2 colon) was 6.89 µM and the TGI (OVCAR-3 ovarian) was 17.4 µM. It also gave a TGI (SW-620 colon) of 16.2 µM, a TGI (786-0 renal) of 2260 nM and a TGI (SF-295 CNS) of 26.8 µM. The TGI (MALME-3M melanoma) was 7.83 µM, the TGI (CAKI-1 renal) was 22.5 µM and the TGI (M19-MEL melanoma) was 41.4 µM. The TGI (NCI-H23 lung) was 3.18 µM and the TGI (SK-OV-3 ovarian) was 5.78 µM.
With c1ccc(-c2nnc(-c3nsc4ccccc34)o2)cc1 the TGI (IGROV1 ovarian) was > 100 µM, the TGI (TK-10 renal) was > 100 µM and the TGI (HOP-62 NSCLC) was > 100000 nM. The TGI (HCT-116 colon) was > 100 µM, the TGI (EKVX NSCLC) was > 100 µM and the TGI (HOP-92 NSCLC) was > 100 µM. For the same molecule, the TGI (SK-MEL-5 melanoma) was > 100 µM, the TGI (RXF 393 renal) was > 100 µM and the TGI (DMS 273 small cell lung) was > 100 µM. For the same molecule, the TGI (SF-268 CNS) was > 100 µM, the TGI (SK-MEL-28 melanoma) was > 100 µM and the TGI (HCT-15 colon) was > 100 µM. The TGI (OVCAR-5 ovarian) was > 100 µM, the TGI (LXFL 529 NSCLC) was > 100 µM and the TGI (OVCAR-4 ovarian) was > 100 µM. For the same molecule, the TGI (A549 NSCLC) was > 100000 nM, the TGI (SF-539 CNS) was > 100000 nM and the TGI (CCRF-CEM leukemia) was > 100 µM. The TGI (RPMI-8226 leukemia) was > 100 µM, the TGI (MOLT-4 leukemia) was > 100000 nM and the TGI (HL-60(TB) leukemia) was > 100000 nM. The TGI (SN12C renal) was > 100000 nM, the TGI (SNB-75 CNS) was 19.7 µM and the TGI (OVCAR-8 ovarian) was > 100 µM. For the same molecule, the TGI (U251 CNS) was > 100000 nM, the TGI (M14 melanoma) was > 100 µM and the TGI (HCC-2998 colon) was > 100 µM. The TGI (COLO 205 colon) was > 100 µM, the TGI (K-562 leukemia) was > 100 µM and the TGI (UO-31 renal) was > 100 µM. For the same molecule, the TGI (SNB-19 CNS) was > 100 µM, the TGI (SK-MEL-2 melanoma) was > 100 µM and the TGI (SNB-78 CNS) was > 100 µM. For the same molecule, the TGI (UACC-62 melanoma) was > 100 µM, the TGI (LOX IMVI melanoma) was > 100 µM and the TGI (UACC-257 melanoma) was > 100 µM. The TGI (HT29 colon) was > 100 µM, the TGI (KM12 colon) was > 100 µM and the TGI (DMS 114 small cell lung) was > 100 µM. The TGI (KM20L2 colon) was > 100 µM, the TGI (OVCAR-3 ovarian) was > 100 µM and the TGI (SW-620 colon) was > 100 µM. The TGI (M19-MEL melanoma) was > 100 µM and the TGI (NCI-H23 lung) was > 100 µM.
